Results: patent US7094909B2, “HIV protease inhibitors, compositions containing the same, their pharmaceutical uses and materials for their synthesis” (priority 2001, dated 2006)
Where “and” joins values, the source holds several entries; their conditions need not be identical. Equal values may be shown once. Read-outs that look alike come from different tables or passages of the source.

Assays:
[1] = system: HIV-1 NL4-3 or HIV-1 NL4-3(I84V/L90M); test: Susceptibility assay, p24 ELISA in infected MT-2 cells; type: cell-based; conditions: Human immunodeficiency virus 1, NL43, MT2, read-out: EC50 or IC50 (mM), values without asterisk (EC50)
Protocol: T-cell lines, CEM-SS, and MT-2, and viruses HIV-1 RF and HIV-1 NL4-3 (pNL4-3) were obtained from the National Institutes of Health (AIDS Research and Reference Reagent Program, Bethesda, Md.).
Compounds were tested in phenotypic susceptibility assays at Virologic, Inc., (See Petropoulos C. J., Parkin N. T., Limoli K. L., Lie Y. S., Wrin T., Huang W., Tian H., Smith D., Winslow G. A., Capon D J, Whitcomb J M. 2000, “A novel phenotypic drug susceptibility assay for human immunodeficiency virus type 1,” Antimicrob Agents Chemother 44(4):920–928) or using the assay described here. MT-2 cells were infected with either HIV-1 NL4-3 or HIV-1 NL4-3([…]) and incubated in the presence of serial 0.5 log dilutions of test compounds. Three days later, culture supernatants were collected and virus production, as determined by p24 ELISA, was assayed. Percent inhibition was calculated as p24 concentration in compound-treated samples as compared to infected, compound-free controls. Inhibition of viral replication is determined by measuring reduction in HIV p24 present in the culture supernatant, using a Beckman-Coulter p24HIV-1 Ag EIA kit and following the supplied protocol. Absorbance is read on a MRX microplate reader (Dynex Technologies). The EC50 was calculated as the concentration of compound that effected a decrease in the p24 production by infected, compound-treated cells to 50% of that produced by infected, compound-free cells.

[2] = target: T1, HIV-1 protease (Q7S mutant form) (Human immunodeficiency virus type 1 group M subtype B, UniProt P04585, Q495S); test: HIV-1 Protease RET assay; type: biochemical; conditions: Ave. Ki (nM), RET assay, Q7S enzyme, Morrison tight binding fit
T1 construct: made in house
Procedure, shortened: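 Ki values fitted with the Morrison tight-binding equation from steady-state RET cleavage (ex 340, em 490 nm) of 5 μM RE(EDANS)SQNYPIVQK(DABCYL)R. Buffer pH 4.8 acetate, 1M NaCl, 5 mM DTT, 1 mg/ml BSA, 10% DMSO; 2 nM Q7S mutant dimer, 37 °C, 12 min.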

[3] = system: HIV-1 (HIV-1 RF, HIV-1 NL4-3) in CEM-SS / MT-2 cells; test: Cytopathic effect (CPE) inhibition assay (XTT/MTT dye reduction); type: cell-based
Procedure, shortened: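 Readout is XTT reduction (A450, 4 h) after six days of culturing virus-infected (moi 0.025–0.819) or mock-infected CEM-SS/MT-2 cells, 2×10^4 per well, with half-log compound series. Antiviral EC50 and cytotoxic CC50 are relative to uninfected compound-free cells. Therapeutic index is CC50 divided by EC50.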

[4] = Human immunodeficiency virus 1, NL43, read-out: Ave CPE EC50

| Compound | EC50 [1] | Ki [2] | EC50 [3, 4] | EC50 ([3]; Human immunodeficiency virus 1, NL43, read-out: Ave CPE EC50 (mM)) |
| --- | --- | --- | --- | --- |
| Cc1c(O)cccc1C(=O)N[C@@H](Cc1ccccc1)[C@H](O)C(=O)N1CSC(C)(C)[C@H]1C(=O)N[C@H]1CCc2ncccc21 [Example A51, 3-[2-Hydroxy-3-(3-hydroxy-2-methyl-benzoylamino)-4-phenyl-butyryl]-5,5-dimethyl-thiazolidine-4-carboxylic acid (6,7-dihydro-5H-[1]pyrindin-5-yl)-amide] | 0.05 µM | < 0.1 nM | 0.159 µM |  |
| CCCNC(=O)[C@H]1N(C(=O)[C@@H](O)[C@H](Cc2ccccc2)NC(=O)c2cccc(O)c2C)CSC12CCC2 [Example C38, (R)-7-((2S,3S)-2-Hydroxy-3-{[1-(3-hydroxy-2-methyl-phenyl)-methanoyl]-amino}-4-phenyl-butanoyl)-5-thia-7-aza-spiro[3.4]octane-8-carboxylic acid propylamide] | 1.31 µM | < 0.1 nM | 0.042 µM |  |
| Cc1c(O)cccc1C(=O)N[C@@H](Cc1ccccc1)[C@H](O)C(=O)N1CC(F)(F)C(C)(C)[C@H]1C(=O)NCC(C)C [Example C21, 4,4-Difluoro-1-[2-hydroxy-3-(3-hydroxy-2-methyl-benzoylamino)-4-phenyl-butyryl]-3,3-dimethyl-pyrrolidine-2-carboxylic acid isobutyl-amide] | 0.081 µM | < 0.1 nM | 0.015 µM |  |
| C=CCOC(=O)N[C@@H](Cc1ccccc1)[C@H](O)C(=O)N1CSC(C)(C)[C@H]1C(=O)NCc1ccccc1C [Example B11, {(1S,2S)-1-Benzyl-3-[(R)-5,5-dimethyl-4-(2-methyl-benzylcarbamoyl)-thiazolidin-3-yl]-2-hydroxy-3-oxo-propyl}-carbamic acid allyl ester] | 2.02 µM | 0.86 nM | 0.567 µM |  |
| Cc1c(O)cccc1C(=O)N[C@@H](Cc1ccccc1)[C@H](O)C(=O)N1CSC(C)(C)[C@H]1C(=O)NCc1ccsc1 [Example A40, (R)-3-((2S,3S)-2-Hydroxy-3-{[1-(3-hydroxy-2-methyl-phenyl)-methanoyl]-amino}-4-phenyl-butanoyl)-5,5-dimethyl-thiazolidine-4-carboxylic acid (thiophen-3-ylmethyl)-amide] | 0.109 µM | < 0.1 nM | 0.04 µM |  |
| Cc1ccccc1CNC(=O)[C@H]1N(C(=O)[C@@H](O)[C@H](Cc2ccccc2)NC(=O)c2cccc(O)c2C)CC(F)(F)C1(C)C [Example C15, (S)-4,4-Difluoro-1-[(2S,3S)-2-hydroxy-3-(3-hydroxy-2-methyl-benzoylamino)-4-phenyl-butyryl]-3,3-dimethyl-pyrrolidine-2-carboxylic acid 2-methyl-benzylamide] | 0.057 µM | < 0.1 nM | 0.025 µM |  |
| Cc1c(O)cccc1C(=O)N[C@@H](Cc1ccccc1)[C@H](O)C(=O)N1CSC(C)(C)[C@H]1C(=O)N[C@H]1CCCc2occc21 (stereo in doubt) [Example A48, 3-[2-Hydroxy-3-(3-hydroxy-2-methyl-benzoylamino)-4-phenyl-butyryl]-5,5-dimethyl-thiazolidine-4-carboxylic acid (4,5,6,7-tetrahydro-benzofuran-4-yl)-amide] | 0.092 µM | < 0.1 nM | 0.037 µM |  |
| Cc1ccccc1C(=O)N[C@@H](Cc1ccccc1)[C@H](O)C(=O)N1CSC(C)(C)[C@H]1C(=O)N[C@@H]1C=CCCC1 [Example B80, (R)-3-{(2S,3S)-2-Hydroxy-4-phenyl-3-[(1-o-tolyl-methanoyl)-amino]-butanoyl}-5,5-dimethyl-thiazolidine-4-carboxylic acid (S)-cyclohex-2-enylamide] | 1.38 µM | 0.15 nM | 0.419 µM |  |
| Cc1c(O)cccc1C(=O)N[C@@H](Cc1ccccc1)[C@H](O)C(=O)N1CC(F)(F)C(C)(C)[C@H]1C(=O)N[C@H]1CCOc2ccccc21 [Example C24, (S)-4,4-Difluoro-1-[(2S,3S)-2-hydroxy-3-(3-hydroxy-2-methyl-benzoylamino)-4-phenyl-butyryl]-3,3-dimethyl-pyrrolidine-2-carboxylic acid (S)-1-benzopyran-4-y] | 0.074 µM | < 0.1 nM | 0.019 µM |  |
| Cc1c(O)cccc1C(=O)N[C@@H](Cc1ccccc1)[C@H](O)C(=O)N1CC(F)(F)C(C)(C)[C@H]1C(=O)NCc1ccc(F)cc1Cl [Example C18, (S)-4,4-Difluoro-1-((2S,3S)-2-hydroxy-3-{[1-(3-hydroxy-2-methyl-phenyl)-methanoyl]-amino}-4-phenyl-butanoyl)-3,3-dimethyl-pyrrolidine-2-carboxylic acid 2-chloro-4-fluoro-benzylamide] | 0.618 µM | < 0.1 nM | 0.148 µM |  |
| Cc1c(O)cccc1C(=O)N[C@@H](Cc1ccccc1)[C@H](O)C(=O)N1COC(C)(C)[C@H]1C(=O)N[C@H]1CCc2ccccc21 [Example C27, (S)-3-((2S,3S)-2-Hydroxy-3-{[1-(3-hydroxy-2-methyl-phenyl)-methanoyl]-amino}-4-phenyl-butanoyl)-5,5-dimethyl-oxazolidine-4-carboxylic acid (S)-indan-1-ylamide] | 0.189 µM | 0.13 nM | 0.115 µM |  |
| Cc1c(O)cccc1C(=O)N[C@@H](Cc1ccccc1)[C@H](O)C(=O)N1CSC2(CCCC2)C1C(=O)N[C@@H]1C=CCCC1 (stereo in doubt) [Example C35, (S)-3-((2S,3S)-2-Hydroxy-3-{[1-(3-hydroxy-2-methyl-phenyl)-methanoyl]-amino}-4-phenyl-butanoyl)-1-thia-3-aza-spiro[4.4]nonane-4-carboxylic acid (S)-cyclohex-2-enylamide] | 0.289 µM | < 0.1 nM | 0.003 µM |  |
| Cc1c(O)cccc1C(=O)N[C@@H](Cc1ccccc1)[C@H](O)C(=O)N1CC(F)(F)C[C@H]1C(=O)N[C@@H]1C=CCCC1 [Example C4, (S)-4,4-Difluoro-1-((2S,3S)-2-hydroxy-3-{[1-(3-hydroxy-2-methyl-phenyl)-methanoyl]-amino}-4-phenyl-butanoyl)-pyrrolidine-2-carboxylic acid (S)-cyclohex-2-enylamide] | 1.9 µM | 0.17 nM | 0.236 µM |  |
| Cc1ccccc1CNC(=O)[C@@H]1CC(F)(F)CN1C(=O)[C@@H](O)[C@H](Cc1ccccc1)NC(=O)c1cccc(O)c1C [Example C1, (S)-4,4-Difluoro-1-[(2S,3S)-2-hydroxy-3-(3-hydroxy-2-methyl-benzoylamino)-4-phenyl-butyryl]-pyrrolidine-2-carboxylic acid 2-methyl-benzylamide] | 0.427 µM | 0.38 nM |  | 0.627 µM |
| Cc1ccncc1CNC(=O)[C@H]1N(C(=O)[C@@H](O)[C@H](Cc2ccccc2)NC(=O)c2cccc(O)c2C)CSC1(C)C [Example A22, 3-(2-Hydroxy-3-{[1-(3-hydroxy-2-methyl-phenyl)-methanoyl]-amino}-4-phenyl-butanoyl)-5,5-dimethyl-thiazolidine-4-carboxylic acid-(4-methyl-pyridin-3-ylmethyl)amide] | 0.318 µM | < 0.1 nM | 0.138 µM |  |
| Cc1ccccc1CNC(=O)[C@@H]1CC(F)(F)CN1C(=O)[C@@H](O)[C@H](Cc1ccccc1)NC(=O)COc1c(C)cccc1C (stereo in doubt) [Example C40, 1-{3-[2-(2,6-Dimethyl-phenoxy)-acetylamino]-2-hydroxy-4-phenyl-butyryl}-4,4-difluoro-pyrrolidine-2-carboxylic acid 2-methyl-benzylamide] | 1.8 µM | 1.8 nM and 0.82 nM |  |  |
| Cc1c(O)cccc1C(=O)N[C@@H](Cc1ccccc1)[C@H](O)C(=O)N1CSC(C)(C)[C@H]1C(=O)N1CCSCC1 [Example A33, N-{(1S,2S)-1-Benzyl-3-[(R)-5,5-dimethyl-4-(1-thiomorpholin-4-yl-methanoyl)-thiazolidin-3-yl]-2-hydroxy-3-oxo-propyl}-3-hydroxy-2-methyl-benzamide] |  | 5.1 nM | 0.749 µM |  |
| Cc1c(O)cccc1C(=O)N[C@@H](Cc1ccccc1)[C@H](O)C(=O)N1CSC(C)(C)[C@H]1C(=O)NC[C@@H]1CCCO1 [Example A37, (R)-3-((2S,3S)-2-Hydroxy-3-{[1-(3-hydroxy-2-methyl-phenyl)-methanoyl]-amino}-4-phenyl-butanoyl)-5,5-dimethyl-thiazolidine-4-carboxylic acid (tetrahydro-furan-2-ylmethyl)-amide] |  | 3.7 nM | 0.416 µM |  |
